{
  "source": "patent US9839701B2",
  "about": "“Aromatic amino acid derivative and positron emission topography (PET) probe using the same” (OSAKA UNIVERSITY, priority 2013, dated 2017)",
  "key": {"human LAT2": {"target": "T1, human LAT2 (Homo sapiens, UniProt Q9UHI5)", "T1 construct": "expressed in transfected cells", "T1 sequence (Q9UHI5 1-535)": "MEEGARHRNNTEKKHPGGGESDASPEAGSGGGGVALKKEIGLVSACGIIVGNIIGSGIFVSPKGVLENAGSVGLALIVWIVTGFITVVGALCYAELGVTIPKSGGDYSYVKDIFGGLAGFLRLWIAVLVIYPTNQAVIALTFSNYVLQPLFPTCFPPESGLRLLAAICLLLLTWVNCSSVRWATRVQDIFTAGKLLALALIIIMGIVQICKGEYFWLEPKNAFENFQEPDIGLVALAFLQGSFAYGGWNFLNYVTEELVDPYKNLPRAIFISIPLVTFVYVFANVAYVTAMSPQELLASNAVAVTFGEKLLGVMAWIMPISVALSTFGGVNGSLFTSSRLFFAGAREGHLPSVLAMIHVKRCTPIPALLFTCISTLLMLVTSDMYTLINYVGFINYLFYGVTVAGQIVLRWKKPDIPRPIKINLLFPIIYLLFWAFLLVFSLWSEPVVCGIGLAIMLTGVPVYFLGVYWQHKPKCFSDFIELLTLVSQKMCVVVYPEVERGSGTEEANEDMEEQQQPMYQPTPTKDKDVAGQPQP", "T1 sequence (P08195 1-529 partner)": "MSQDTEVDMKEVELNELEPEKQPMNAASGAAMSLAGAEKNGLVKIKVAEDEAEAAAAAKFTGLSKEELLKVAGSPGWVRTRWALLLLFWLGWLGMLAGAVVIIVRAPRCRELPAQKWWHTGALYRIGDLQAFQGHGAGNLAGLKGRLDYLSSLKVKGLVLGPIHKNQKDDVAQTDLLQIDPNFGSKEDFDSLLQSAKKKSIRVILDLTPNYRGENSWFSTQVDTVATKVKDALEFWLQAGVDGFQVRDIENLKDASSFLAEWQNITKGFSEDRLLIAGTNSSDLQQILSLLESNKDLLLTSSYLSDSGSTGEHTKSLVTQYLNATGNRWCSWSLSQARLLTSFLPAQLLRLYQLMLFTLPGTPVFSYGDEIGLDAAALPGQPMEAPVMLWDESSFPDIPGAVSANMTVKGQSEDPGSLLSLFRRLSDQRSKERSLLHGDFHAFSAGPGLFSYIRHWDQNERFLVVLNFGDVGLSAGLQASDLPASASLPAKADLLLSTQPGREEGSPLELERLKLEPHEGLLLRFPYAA", "test": "Inhibition of amino acid uptake in human LAT2 stably expressing cell line", "type": "cell-based", "text": "A human LAT1 expression vector or a human LAT2 expression vector was transfected using Lipofectamine (registered trademark) 2000 (Invitrogen) into a human embryonic kidney cell line HEK293. G418-resistant HEK293 clones were selected, and among them, a clone showing human LAT1-specific amino acid uptake and a clone showing human LAT2-specific amino acid uptake were selected and established as a human LAT1 stably expressing cell line and a human LAT2 stably expressing cell line, respectively (Khunweeraphong et al. J Pharmacol Sci. 2012 Aug. 18; 119(4): 368-80. Epub 2012 Jul. 31).\nThe human LAT1 stably expressing cell line and the human LAT2 stably expressing cell line were seeded at 1.2×10^5 cells/well on separate collagen-coated 24-well plates, and after 48 hours, the cells were washed 3 times with an uptake buffer (Na^2+-free Hank's balanced salt solution (HBSS), pH 7.4) prewarmed at 37° C. Compound 10a, compound 10b or a positive control FAMT (fluoro-α-methyltyrosine) was added at 100 μM, and incubation was performed at 37° C. for 3 minutes. Cells not treated with any of these compounds were used as a negative control. After the incubation, 1 μM of [^14C]L-leucine or [^14C]alanine was added to the wells, [^14C]L-leucine or [^14C]alanine uptake was allowed to proceed for 1 minute, and the cells were washed 3 times with an ice-cold uptake buffer. Subsequently, 500 μL of 0.1 M NaOH was added to each well for cell lysis, 20 μL of the lysate was used for the measurement of the protein concentration, and the remaining lysate was used for the measurement of the intracellular radioactivity. The measured radioactivity was normalized to the protein concentration, and on the assumption that the amino acid uptake activity in the negative control was 100%, the percentage (%) of inhibition of amino acid uptake in the presence of each compound was calculated.\nUsing the same cell lines as described in Example 2, the compound of Example 1 was examined for the inhibitory effect on leucine or alanine uptake in the human LAT1 stably expressing cell line and the human LAT2 stably expressing cell line in the same manner as in Example 2. FAMT was used as the positive control. The compound of Example 1 or FAMT was added at 100 μM. Cells not treated with either of these compounds were used as a negative control. On the assumption that the amino acid uptake activity in the negative control (control) was 100%, the percentage (%) of inhibition of amino acid uptake in the presence of FAMT or the compound of Example 1 was calculated. In addition, the cancer cell selectivity was calculated as the ratio of the amino acid uptake activity in the human LAT2 stably expressing cell line relative to that in the human LAT1 stably expressing cell line.\nIn another experiment, the cells were treated with the compound of Example 1 at eight different concentrations (0.1, 1, 3, 10, 30, 100, 300 and 1000 μM), and the concentration causing 50% inhibition of amino acid uptake was calculated as the IC50 value.\nA human LAT1 stably expressing cell line and a human LAT2 stably expressing cell line, each of which was the same as described in Example 2, were seeded at 1.2×10^5 cells/well, and after 48 hours, the cells were washed 3 times with an uptake buffer (Na^2+-free Hank's balanced salt solution (HBSS), pH 7.4) prewarmed at 37° C. The test compounds, L-tyrosine or the positive control FAMT (fluoro-α-methyltyrosine) was added at 30 μM, and incubation was performed at 37° C. for 3 minutes. Cells not treated with any of these compounds were used as a negative control. After the incubation, 1 μM of [^14C]L-leucine or [^14C]alanine was added to the wells, [^14C]L-leucine or [^14C]alanine uptake was allowed to proceed for 1 minute, and the cells were washed 3 times with an ice-cold uptake buffer. […]"}, "[1]": {"test_system": "tumor derived from human pancreatic carcinoma cell line MIAPaCa-2", "test": "Accumulation in subcutaneous tumor of nude mouse, HPLC detection after PITC labeling", "type": "in vivo", "settings": "100 nmol via tail vein, tumor excised 1 hour after administration, FIG. 3", "method": "A tumor derived from subcutaneously implanted MIAPaCa-2 cells in a nude mouse was excised, and 0.1 g of the tumor was subcutaneously transplanted into a 6-week-old female nude mouse (BALB/cAJc1-nu). One month after the transplantation, the compound of Example 1 was dissolved in physiological saline at a concentration of 1 mM, and 0.1 mL (100 nmol) of the solution or 0.1 mL of physiological saline was administered from the tail vein. One hour after the administration, the tumor was excised, the amino acids in the tumor tissue were labeled with phenylisothiocyanate (PITC), and the labeled compound was detected by HPLC for evaluation of the accumulation."}},
  "data": [
    {"smiles": "NC(Cc1cc(OCCF)ccc1I)C(=O)O", "note": "(stereo not drawn) [Example 1, 2-amino-3-(5-(2-fluoroethoxy)-2-iodophenyl)propanoic acid]", "values": [
      {"measurement": "inhibition at 100 µM", "setting": "human LAT2; HEK293, compound at 100 μM, human LAT2 stably expressing HEK293 cell line, 1 μM [14C]L-leucine or [14C]alanine, 1 min uptake, read-out: Percentage of inhibition of LAT2-mediated amino acid uptake", "value": 55.1, "unit": "%"},
      {"measurement": "IC50", "setting": "human LAT2; eight concentrations 0.1-1000 μM", "value": 84, "unit": "µM"},
      {"measurement": "Accumulation in tumor", "setting": "[1]", "value": "accumulated intensively in the tumor"}
    ]}
  ]
}
